Assay results published in patent publication US9156811B2 (priority 2008, dated 2015).
Like-named read-outs stand apart in the source and are kept apart here.

Tests used:
[1] = tested on: Trypanosome (T. brucei brucei); test: In-vitro antitrypanosomal efficacy assay (cell growth, resazurin); type: cell-based
[2] = molecular target: T. brucei N-myristoyl transferase (Trypanosoma brucei brucei (strain 927/4 GUTat10.1), UniProt Q388H8); test: biochemical; type: biochemical
[3] = molecular target: L. major N-myristoyl transferase (Leishmania major, UniProt Q4Q5S8); type: biochemical; details: Leishmania major NMT; value in parentheses; read-out: IC50 (μM) NMT Enzyme (LmNMT)
Chain of L. major N-myristoyl transferase (Q4Q5S8 1-421): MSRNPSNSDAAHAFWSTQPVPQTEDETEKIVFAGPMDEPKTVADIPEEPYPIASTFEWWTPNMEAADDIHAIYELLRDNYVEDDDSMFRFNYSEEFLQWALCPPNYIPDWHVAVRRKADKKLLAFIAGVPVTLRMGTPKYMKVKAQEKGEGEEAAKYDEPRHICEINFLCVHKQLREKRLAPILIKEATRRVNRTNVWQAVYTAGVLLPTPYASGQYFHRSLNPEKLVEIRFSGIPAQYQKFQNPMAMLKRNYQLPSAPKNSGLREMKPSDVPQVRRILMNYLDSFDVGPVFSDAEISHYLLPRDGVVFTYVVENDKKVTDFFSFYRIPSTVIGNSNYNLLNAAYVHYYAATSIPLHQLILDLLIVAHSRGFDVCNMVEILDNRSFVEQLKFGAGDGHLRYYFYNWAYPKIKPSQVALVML

human NMT-1 = human NMT-1 (Homo sapiens (Human), UniProt P30419); test: NMT enzyme inhibition scintillation proximity assay, human NMT-1; type: biochemical
Chain of human NMT-1 (P30419 whole entry): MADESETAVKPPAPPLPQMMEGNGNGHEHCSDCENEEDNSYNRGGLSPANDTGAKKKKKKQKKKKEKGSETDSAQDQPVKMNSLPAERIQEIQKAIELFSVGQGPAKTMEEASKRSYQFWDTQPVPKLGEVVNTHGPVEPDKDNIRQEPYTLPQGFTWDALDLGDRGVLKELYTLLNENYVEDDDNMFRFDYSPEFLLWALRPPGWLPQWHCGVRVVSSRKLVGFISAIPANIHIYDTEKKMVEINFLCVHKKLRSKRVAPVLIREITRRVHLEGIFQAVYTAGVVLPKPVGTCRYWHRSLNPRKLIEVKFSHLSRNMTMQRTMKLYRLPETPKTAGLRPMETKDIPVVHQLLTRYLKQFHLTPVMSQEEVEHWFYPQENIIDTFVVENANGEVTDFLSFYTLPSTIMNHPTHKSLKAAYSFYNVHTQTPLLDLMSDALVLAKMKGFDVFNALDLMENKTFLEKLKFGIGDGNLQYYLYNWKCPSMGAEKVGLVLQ

[4] = T. brucei brucei, blood stream form, variant 221
[5] = T. brucei NMT, value without parentheses, read-out: IC50 (μM) NMT Enzyme (T. brucei NMT)
[6] = Human NMT-1, value in parentheses, read-out: IC50 (μM) NMT Enzyme (HuNMT-1)
[7] = value with no enzyme tag in the cell, taken as T. brucei NMT, read-out: IC50 (μM) NMT Enzyme
[8] = read-out: IC50 (μM) NMT Enzyme (T. brucei NMT)

Chain of T. brucei N-myristoyl transferase (Q388H8 1-446): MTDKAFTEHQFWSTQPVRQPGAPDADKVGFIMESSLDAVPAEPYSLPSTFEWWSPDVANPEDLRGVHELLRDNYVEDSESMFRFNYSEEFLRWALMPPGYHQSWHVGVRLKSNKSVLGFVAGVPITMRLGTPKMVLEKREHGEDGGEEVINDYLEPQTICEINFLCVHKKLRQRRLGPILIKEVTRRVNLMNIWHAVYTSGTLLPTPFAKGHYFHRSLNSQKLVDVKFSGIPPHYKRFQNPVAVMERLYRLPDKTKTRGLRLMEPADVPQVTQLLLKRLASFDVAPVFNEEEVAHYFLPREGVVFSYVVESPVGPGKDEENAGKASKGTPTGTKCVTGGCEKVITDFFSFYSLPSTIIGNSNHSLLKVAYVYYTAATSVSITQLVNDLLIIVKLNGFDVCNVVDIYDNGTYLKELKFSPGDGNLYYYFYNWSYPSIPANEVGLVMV

Row | IC50 [2, 5] [µM] | IC50 [3] [µM] | IC50 (human NMT-1; [6]) [µM] | IC50 (human NMT-1; HuNMT-1) [µM] | IC50 [2, 7] [µM] | Compound | ED50 (μM) T. brucei [1, 4] [µM] | ED50 (μM) T. brucei ([1]; T. brucei cell growth) [µM] | IC50 [2, 8] [µM]
1 | 0.006 | 0.077 |  |  |  | Cc1c(N[S+](=O)([O-])c2ccc(-c3cccc(CN4CCCC4C)c3)cc2)c(CC(C)C)nn1C (centres unmarked) [DDD100804] | 0.035 |  | 
2 | 0.02 | 0.47 |  |  |  | Cc1c(N[S+](=O)([O-])c2ccc(-c3cccc(CNC(C)C)c3)cc2)c(CC(C)C)nn1C [DDD100799] | 0.293 |  | 
3 | 0.004 | 0.011 |  |  |  | Cc1c(N[S+](=O)([O-])c2ccc(-c3ccc4c(c3)CNCC4)cc2)c(CC(C)C)nn1C [DDD100801] | 0.014 |  | 
4 | 0.004 | 0.224 |  |  |  | Cc1c(N[S+](=O)([O-])c2ccc(-c3ccc(F)c(CN4CCCC4)c3)cc2)c(CC(C)C)nn1C [DDD100806] | 0.033 |  | 
5 | 0.74 | > 1 | > 1 |  |  | Cc1nn(C)c(C)c1N[S+](=O)([O-])c1ccc(-c2cccc(-c3nccn3C)c2)cc1 [DDD100874] | >1 |  | 
6 | 0.032 | 0.211 |  |  |  | Cc1c(N[S+](=O)([O-])c2ccc(-c3cccc(CN(C)C)c3)cc2)c(CCc2ccccc2)nn1C [DDD100885] | 9.72 |  | 
7 |  |  |  | > 10 | 2.1 | Cc1nn(C)c(C)c1N(C)[S+](=O)([O-])c1ccc(CCCCN(C)C)cc1 [DDD99745] |  | >1 | 
8 |  |  |  | 6.1 | 0.26 | Cc1nn(C)c(C)c1N(C)[S+](=O)([O-])c1ccc(CCCN2CCN(C)CC2)cc1 [DDD90115] |  | 2.21 | 
9 | 0.86 | > 1 | > 1 |  |  | Cc1c(N[S+](=O)([O-])c2ccc(-c3cccc(CN(C)Cc4cccnc4)c3)cc2)c(CC(C)C)nn1C [DDD100796] | >1 |  | 
10 |  |  |  | 1.37 | 0.082 | Cc1c(N(C)[S+](=O)([O-])c2ccc(CCCN3CCN(C)CC3)cc2)c(CC(C)C)nn1C [DDD90143] |  | 0.81 | 
11 |  |  |  | > 100 | > 100 | Cn1cc(N[S+](=O)([O-])c2ccc(Br)cc2)cn1 [DDD88321] |  | >10 | 
12 | 0.803 | 1.59 | 2.6 |  |  | Cc1nn(C)c(C)c1N[S+](=O)([O-])c1ccc(-c2cccc(-c3c[nH]cn3)c2)cc1 [DDD100879] | >1 |  | 
13 | 0.023 | 0.672 | > 1 |  |  | Cc1c(N[S+](=O)([O-])c2ccc(CCCCC3CCN(C)CC3)cc2)c(Cc2ccccc2)nn1C [DDD100883] | 0.427 |  | 
14 |  |  |  | > 1 | 0.31 | Cc1nn(C)c(C)c1N(C)[S+](=O)([O-])c1ccc(CCCC2CCN(C(C)C)CC2)cc1 [DDD90153] |  | >1 | 
15 | 0.006 | 0.091 |  |  |  | Cc1c(N[S+](=O)([O-])c2ccc(-c3cccc(C(C)(C)N(C)C)c3)cc2)c(CC(C)C)nn1C [DDD100863] | 0.015 |  | 
16 | 0.006 | 0.059 |  |  |  | Cc1c(N[S+](=O)([O-])c2ccc(-c3ccc4c(c3)CN(C)CC4)cc2)c(CC(C)C)nn1C [DDD100876] | 0.014 |  | 
17 |  |  |  | 3.36 | 75.4 | Cc1nn(C)cc1N[S+](=O)([O-])c1c(Cl)cc(Br)cc1Cl [DDD88324] |  | >10 | 
18 | 0.014 |  | 1.7 |  |  | Cc1nn(C)c(C)c1N(CC(F)F)[S+](=O)([O-])c1c(Cl)cc(CCCN2CCN(C)CC2)cc1Cl [DDD100163] | 0.125 |  | 
19 | 0.01 | 0.054 |  |  |  | CCCCc1nn(C)c(C)c1N[S+](=O)([O-])c1ccc(-c2cccc(CN(C)C)c2)cc1 [DDD100866] | 3.2 |  | 

Row | IC50 [2, 5] [µM] | IC50 [3] [µM] | IC50 (human NMT-1; [6]) [µM] | IC50 (human NMT-1; HuNMT-1) [µM] | IC50 [2, 7] [µM] | Compound | ED50 (μM) T. brucei [1, 4] [µM] | ED50 (μM) T. brucei ([1]; T. brucei cell growth) [µM] | IC50 [2, 8] [µM]
20 | 13.8 | > 1 | > 1 |  |  | Cc1nn(C)c(C)c1N[S+](=O)([O-])c1ccc(-c2cccc(-c3cn(C)cn3)c2)cc1 [DDD100873] | >1 |  | 
21 | 0.004 | 0.019 |  |  |  | Cc1c(N[S+](=O)([O-])c2ccc(-c3cccc(CNCCc4cccnc4)c3)cc2)c(CC(C)C)nn1C [DDD100869] | 5.7 |  | 
22 | 2.68 | > 1 | > 1 |  |  | CCCCc1nn(C)c(C)c1N[S+](=O)([O-])c1ccc(Br)cc1 [DDD100875] | 20.5 |  | 
23 |  |  |  | 6.3 | 0.61 | Cc1nn(C)c(C)c1N[S+](=O)([O-])c1ccc2nc(NC3CCNCC3)ccc2c1 [DDD88523] |  | >1 | 
24 |  |  |  | > 1 | 0.5 | Cc1nn(C)c(C)c1N(C)[S+](=O)([O-])c1ccc(CCCC2CCN(Cc3ccccc3)CC2)cc1 [DDD90152] |  | >1 | 
25 |  |  |  | > 1 | 0.45 | Cc1nn(C)c(C)c1N(C)[S+](=O)([O-])c1ccc(CCCN(C)C)cc1 [DDD99749] |  | >1 | 
26 | 1.3 |  | 4 |  |  | Cc1c(N[S+](=O)([O-])c2ccc(-c3cccc(CNCc4ccccc4)c3)cc2)c(CC(C)C)nn1C [DDD100150] | >1 |  | 
27 | 0.006 | 0.074 |  |  |  | CCCc1nn(C)c(C)c1N[S+](=O)([O-])c1ccc(-c2cccc(CN(C)C)c2)cc1 [DDD100867] | 0.048 |  | 
28 |  |  |  | 3.7 | 0.92 | CCCN(CCC)Cc1cccc(-c2cc(Cl)c([S+](=O)([O-])N(C)c3c(C)nn(C)c3C)c(Cl)c2)c1 [DDD88636] |  | 1.89 | 
29 |  |  |  | 3.8 | 0.16 | Cc1c(N[S+](=O)([O-])c2ccc(-c3cccc(CN4CCC(N(C)C)C4)c3)cc2)c(CC(C)C)nn1C (centres unmarked) [DDD99821] |  | 0.59 | 
30 |  |  |  | 0.021 | 0.005 | CCN(C)Cc1cccc(-c2ccc([S+](=O)([O-])Nc3c(CC(C)C)nn(C)c3C)cc2)c1 [DDD99741] |  | 0.047 | 
31 |  |  |  | > 10 | 2 | Cc1nn(C)c(C)c1N(C)[S+](=O)([O-])c1ccc(CCCCn2ccnc2)cc1 [DDD99746] |  | >1 | 
32 |  |  |  | 4.48 | 0.39 | Cc1nn(C)c(C)c1N(C)[S+](=O)([O-])c1c(Cl)cc(-c2cccc(CNC3CCCCC3)c2)cc1Cl [DDD88642] |  | 0.89 | 
33 | 0.097 | 1.9 |  |  |  | Cc1c(N[S+](=O)([O-])c2ccc(-c3ccc(CN(C)C)cc3)cc2)c(CC(C)C)nn1C [DDD100865] | 7.3 |  | 
34 | 1.08 | > 1 | > 1 |  |  | Cc1nn(C)c(C)c1N[S+](=O)([O-])c1ccc(-c2cccc(-c3ncc[nH]3)c2)cc1 [DDD100884] | >1 |  | 
35 | 0.262 | 0.906 | 2.4 |  |  | Cc1nn(C)c(C)c1N[S+](=O)([O-])c1ccc(-c2cccc(-c3nccn3C)c2)cc1 [DDD100878] | >1 |  | 
36 | 0.026 | 1.4 |  |  |  | Cc1c(N[S+](=O)([O-])c2ccc(-c3cccc(CNCc4cccnc4)c3)cc2)c(CC(C)C)nn1C [DDD100793] | 0.54 |  | 
37 | 0.36 |  | 2.3 |  |  | Cc1c(N[S+](=O)([O-])c2ccc(-c3cccc(CNC4CCCC4)c3)cc2)c(CC(C)C)nn1C [DDD100146] | >1 |  | 

Row | Compound | IC50 [2, 5] [µM] | IC50 [3] [µM] | IC50 (human NMT-1; [6]) [µM] | IC50 (human NMT-1; HuNMT-1) [µM] | IC50 [2, 7] [µM] | ED50 (μM) T. brucei [1, 4] [µM] | ED50 (μM) T. brucei ([1]; T. brucei cell growth) [µM] | IC50 [2, 8] [µM]
38 | Cc1nn(C)c(C)c1N(C)[S+](=O)([O-])c1ccc(CCCn2ccnc2)cc1 [DDD99750] |  |  |  | > 1 | > 1 |  | >1 | 
39 | Cc1nn(C)c(C)c1N(C(F)F)[S+](=O)([O-])c1c(Cl)cc(CCCCCCn2ccnc2)cc1Cl [DDD100156] |  | 0.048 | 1.1 |  |  | 0.148 |  | 0.016
40 | Cc1c(N[S+](=O)([O-])c2ccc(-c3cccc(CNCCc4ccccn4)c3)cc2)c(CC(C)C)nn1C [DDD100882] | 0.305 | > 1 |  |  |  | 2.45 |  | 
41 | CCc1nn(C)c(CC)c1NS(=O)(=O)c1c(Cl)cc(Br)cc1Cl [DDD99835] | 0.38 |  | > 1 |  |  | >1 |  | 
42 | Cc1nn(C)c(C)c1N(CC(F)(F)F)[S+](=O)([O-])C1=C(Cl)C=C(CCCN2CCCNCC2)CC1Cl (centres unmarked) [DDD100148] | 0.008 |  | 0.21 |  |  | 0.018 |  | 
43 | Cc1nn(C)c(C)c1N(C(F)F)[S+](=O)([O-])c1c(Cl)cc(CCCCCCn2ccnc2C(C)C)cc1Cl [DDD100791] |  | 0.044 | 2.1 |  |  | 0.344 |  | 0.21
44 | Cc1nn(C)c(C)c1N(C)[S+](=O)([O-])c1ccc(CCCC2CCN(CC3CC3)CC2)cc1 [DDD90155] |  |  |  | > 1 | > 1 |  | 4.0 | 
45 | Cc1c(N[S+](=O)([O-])c2ccc(-c3ccccc3CN(C)C)cc2)c(CC(C)C)nn1C [DDD100862] | 0.358 | > 1 |  |  |  | >1 |  | 
46 | Cc1nn(C)c(C)c1N(CC(F)F)[S+](=O)([O-])c1c(Cl)cc(Br)cc1Cl [DDD100147] | 3.2 |  | > 10 |  |  | >1 |  | 
47 | Cc1c(N[S+](=O)([O-])c2ccc(CCCC3CCN(C)CC3)cc2)c(Cc2ccccc2)nn1C [DDD100881] | 0.02 | 0.778 |  |  |  | 0.234 |  | 
48 | Cc1c(N[S+](=O)([O-])c2ccc(Br)cc2)c(CCc2ccccc2)nn1C [DDD100880] | > 1 | > 1 | > 1 |  |  | 21.4 |  | 
